Target: T1, TGF-beta receptor type-1 (Homo sapiens, UniProt P36897)
T1 sequence (P36897 whole entry): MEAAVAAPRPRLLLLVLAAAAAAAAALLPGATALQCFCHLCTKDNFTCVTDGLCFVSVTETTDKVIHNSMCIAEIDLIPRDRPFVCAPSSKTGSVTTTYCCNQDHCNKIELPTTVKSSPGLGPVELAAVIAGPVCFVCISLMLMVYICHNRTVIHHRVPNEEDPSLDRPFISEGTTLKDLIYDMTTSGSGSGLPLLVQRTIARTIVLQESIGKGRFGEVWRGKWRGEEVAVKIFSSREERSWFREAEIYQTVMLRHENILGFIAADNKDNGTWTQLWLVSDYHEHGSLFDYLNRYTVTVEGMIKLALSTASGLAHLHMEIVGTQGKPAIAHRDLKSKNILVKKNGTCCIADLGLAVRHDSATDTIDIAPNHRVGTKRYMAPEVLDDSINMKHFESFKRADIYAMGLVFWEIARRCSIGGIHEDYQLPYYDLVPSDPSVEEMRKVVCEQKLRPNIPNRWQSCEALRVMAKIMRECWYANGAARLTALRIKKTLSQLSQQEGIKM
Test: In vitro Assay
Description: The enzymatic activity of compounds of the present invention was monitored measuring the formation of ADP using the ADP-GLO Kinases assay. Following the incubation of the purified enzyme, a substrate and ATP, the produced ADP was converted into ATP, which in turn was converted into light by Ultra-Glo Luciferase. The luminescent signal positively correlated with ADP amount and kinase activity.

Row | Structure (SMILES) | IC50 [nM]
1 | Cc1nnc(-c2cc(Cl)ccc2F)cc1Nc1ccnc(NC(=O)CCN2CCNC(C(=O)O)C2)c1 (configuration not stated) [US20240018122, Example 92] | < 1
2 | Cc1nnc(-c2cc(Cl)ccc2F)cc1Nc1ccnc(NC(=O)CCN2CC[N+](C)(C)CC2)c1 [US20240018122, Example 110] | < 1
3 | Cc1nnc(-c2cc(Cl)ccc2F)cc1Nc1ccnc(NC(=O)NCC2CCN(C)CC2)c1 [US20240018122, Example 142] | < 1

The remaining lines, values ahead:

Row | IC50 [nM] | Structure (SMILES)
4 | < 1 | Cc1nnc(-c2cc(Cl)ccc2F)cc1Nc1ccnc(NC(=O)C2CC2)c1 [US20240018122, Example 15]
5 | < 1 | CN1CCN(CCN(C)C(=O)c2cc3c(Nc4cnnc(-c5cc(Cl)ccc5F)c4)ccnc3[nH]2)CC1 [US20240018122, Example 40]
6 | < 1 | Cc1nnc(-c2cc(Cl)ccc2F)cc1Nc1ccnc(NC(=O)CCN2CCN(CCS(C)(=O)=O)CC2)c1 [US20240018122, Example 83]
7 | < 1 | OCCC(CCO)N1CCN(CCOc2ccc3c(Nc4cnnc(-c5cc(Cl)ccc5F)c4)ccnc3c2)CC1 [US20240018122, Example 86]

Source: BindingDB's records for patent US20240018122 (Chiesi Farmaceutici, 2024)
